Data published in patent publication US20080241194A1, “COMPOSITIONS AND METHODS FOR PROTECTING ORGANS, TISSUE AND CELLS FROM IMMUNE SYSTEM-MEDIATED DAMAGE” (THE BOARD OF TRUSTEES OF THE LELAND STANFORD JUNIOR …, priority 1998, published 2008).

Legend:
[1] = biological target: receptors for huHsp47 on CIK cells; assay: FACS of mature d21 CIK cells stained with 10 ug/ml eGFP-huHsp47, PE-CD56 co-staining
HUVEC = assay: ^51Cr release CIK cytotoxicity assay, endothelial cell targets pre-treated with BFA, protein or peptide; type: cell-based, human; parameters: block of CIK mediated lysis of HUVECs: dose or concentration left out as unconfirmed; conditions: for protection of EC from CIK lysis by pre-incubation with purified native protein: gelatin purified protein, 30 minutes, washed before CIK addition
Experimental: (§1) Target cells were metabolically labelled with ^51Cr (Dupont—New England Nuclear, Boston, Mass.) by incubating 1×10^6 cells in […] ^51Cr at 37° C. for 1-1.5 hours. The labelled cells were washed three times with phosphate buffered saline (PBS) containing 0.1% bovine serum albumin. The labelled cells were distributed in flat-bottomed 96 well microtiter plates at a concentration of 2×10^4 cells/well in triplicate. Effector (CIK) cells were added at the indicated ratios. Mabs were added prior to the addition of effector cells, and incubated for 15-30 minutes at room temperature. The final volume of the assay mixture in each well was 0.2 ml. After 4 hours at 37° C., the cells were collected by centrifugation and an aliquot of the supernatant was counted in a gamma counter (Micromedic Systems, Horsham, Pa.). The percentage of specific ^51Cr release was calculated according to the following equation: […]
Spontaneous release was obtained by incubating the labelled cells in complete medium alone and maximal release by treatment of the cells with 1% NP-40.
For brefeldin A (BFA) treatment, freshly confluent HUVEC monolayers, nonadherent target cells or CIK cells at 0.5-2×10^6 cells per ml were incubated with medium supplemented with 0.5-10 μg of brefeldin A (B6hringer Mannheim GmbH, Mannheim, Germany) per ml medium and incubated for 2-6 hours in a humidified incubator with 5% carbon dioxide at 37° C. BFA was dissolved at 100 μg per ml in 70% ethanol and used fresh or stored up to 4 weeks at −20° C. Prior to cytotoxicity assay the cells were rinsed three times with PBS, and fresh medium not containing BFA was added for the remainder of the assay (FIG. 4).
Both HUVEC and OCI-Ly8 cells were incubated with BFA at concentrations of 0, 2.5, 5, 7.5 and 10 μM for 6 hours as described above, washed, labeled with ^51Cr and used in a cytotoxicity assay with d21 CIK cells at an E:T ratio of 20:1. Preincubation of EC targets with 2.5 μM BFA reduced CIK mediated cytotoxicity by 40%.
Subsequent to ^51Cr labeling but prior to addition of effector cells 10-200 μg FPLC purified Hsp47 (Example 7) protein or 10 nM to 10 μM HPLC purified peptide […] (SEQ ID NO:3) (Example 8), both in sterile PBS at pH 7.4 and diluted to the final concentration with RPMI, were added to targets per ml of medium and incubated for 30 minutes at 37° C. in a humidified atmosphere of 5% CO2. In assays using purified protein, targets were subjected to three subsequent washes with 10 volumes of Ca^2+, Mg^2+ and 5% FCS containing PBS prior to providing fresh standard culture medium to the target cells. In assays using purified peptide, the added peptide was present for the entire assay. The remainder of the assay was performed as detailed above, at 37° C. in a humidified atmosphere of 5% CO2.

OCI-Ly8 tumor cell = assay: ^51Cr release CIK cytotoxicity assay, tumor targets; type: cell-based, human; conditions: OCI-Ly8 incubated with BFA 0-10 μM for 6 hours, E:T 20:1
Experimental: as §1
Spontaneous release was obtained by incubating the labelled cells in complete medium alone and maximal release by treatment of the cells with 1% NP-40. […]

huHsp47 RNA = assay: Northern analysis of huHsp47 RNA expression in BFA treated EC; type: cell-based, human; conditions: EC under BFA treatment, 0, 2 and 6 hour time points
Experimental: Northern analysis of huHsp47 RNA expression was carried out via a^32P-ATP nick translation labeling of the agarose gel purified full-length huHSP47 cDNA as probe and human beta action (a kind gift of Dr. S.N. Cohen) cDNA as internal control probe. Total RNA was harvested at 0 hour, 2 hour and 6 hour time points from EC undergoing BFA treatment. RNA for each time point was purified, denatured, subjected to formamide flatbed agarose gel electrophoresis, transferred to nitrocellulose, prehybridized, hybridized with the ^32P-labelled probes, washed under stringent conditions and autoradiographed without intensifier screens at −80° C. using techniques well known to those skilled in the art (see Sambrook et al. Molecular Cloning, A Laboratory Manual, second edition, Cold Spring Harbor Laboratory Press, 1989).

46.5 KDa protein (Hsp47) = assay: Immunoprecipitation and autoradiography of ^35S labeled 46.5 KDa protein from EC; type: cell-based, human
Experimental: For metabolic ^35S methionine/cysteine labelling cells were cultured for 22 hours in cysteine and methionine free RPMI 1640 or Hams-F12K (Irvine Scientific, Santa Ana, Calif.) media with dialyzed FCS, otherwise as described above, prior to the addition of 100 μCi ml-1 of Translabel (PIERCE/Amersham, Amersham, UK) ^35S methionine/cysteine at the start of BFA, control treatment and incubated for the indicated times. Pulse-chase labelled proteins were analyzed by SDS-PAGE, western analysis or autoradiography and silver staining.
Immunoprecipitation was carried out by first preparing preformed immune complexes as follows: Purified specific mouse monoclonal or rabbit polyclonal antibody were incubated in stoichiometric ratio with purified secondary goat anti-mouse or anti-rabbit antibody at a concentration of 10 μg ml-1 of 150 mM NaCl, 10 mM Tris-HCl, 1% (w/v) NP40, pH 7.8 with gentle agitation for 3 hours at 4° C. In a separate reaction their respective isotype matched control antibodies were coupled to protein A sepharose beads (Pharmacia, Uppsala, Sweden). […] The specific immune precipitate was recovered by centrifugation at 13,000 rpm for 30 minutes at 4° C., washed twice with 10 mM Tris-HCl at pH 6.8 and analyzed by SDS-PAGE and subsequent silver stain, transfer to solid support and streptavidin-AP detection and autoradiography. […]

huHsp47δRDEL-enhanced green fluorescent protein (eGFP) fusion protein (from UniProt P50454 19-414)
percent of cells positive for both eGFP-huHsp47 and PE-CD56 probes [1]: 26%

CC1CCCC=CC2CC(O)CC2C(O)C=CC(=O)O1 (stereo not shown) [BFA, 1,6,7,8,9,11a,12,13,14,14a-decahydro-1,13-dihydroxy-6-methyl-4H-cyclopent[f]oxacyclotridecin-4-one, reference compound]
suppression of CIK mediated lysis of EC (HUVEC; BFA 0, 2.5, 5, 7.5 and 10 μM for 6 hours, E:T 20:1): suppress the CIK mediated lysis of EC in a dose dependent manner | persistence of resistant EC state after removal of the agent (HUVEC; after BFA removal): at least six hours | block of CIK mediated lysis of HUVECs (HUVEC; preincubation in BFA (so in the source), 6 hours, E:T 20:1): completely block | reduction of CIK mediated cytotoxicity against EC targets (HUVEC; preincubation with 2.5 μM BFA for 6 hours, d21 CIK, E:T 20:1): 40% | effect on ability of CIK cells to lyse tumor targets (OCI-Ly8 tumor cell): did not affect | expression of housekeeping gene beta action (huHsp47 RNA): does not affect | huHsp47 gene expression (huHsp47 RNA): does upregulate | ^35S labeled 46.5 KDa protein in IP from EC (46.5 KDa protein (Hsp47); non-protective dose of 30 μM BFA): not detectable | ^35S labeled 46.5 KDa protein in IP from EC (46.5 KDa protein (Hsp47); protective dose of 10 μm BFA): contained a ^35S labeled 46.5 KDa protein

B1: huHsp47: native human Hsp47, 46.5 KDa protein gelatin-affinity purified from BFA induced HUVEC (protein)
chain: AEVKKPVEAAAPGTAEKLSSKATTLAEPSTGLAFSLYQAMAKDQAVENILVSPVVVASSLGLVSLGGKATTASQAKAVLSAEQLRDEEVHAGLGELLRSLSNSTARNVTWKLGSRLYGPSSVSFADDFVASSKQHYNCEHSKINFPDKRSALQSINEWAAQTTDGKLPEVTKDVESTDGALLVNAMFFKPHWDEKFHHKMVDNRGFMVTRSYTVGVTMMHRTGLYNYYDDEKEKLQLVEMPLAHKLSSLIILMPHHVEPLERLEKLLTKEQLKIWMGKMQKKAVAISLPKGVVEVTHDLQKHLAGLGLTEAIDKNKADLSRMSGKKDLYLASVFHATAFELDTDGNPFDQDIYGREELRSPKLFYADHPFIFLVRDTQSGSLLFIGRLVRLKGDKMRDEL
protection of EC from CIK mediated lysis (HUVEC; 20 μm of gelatin-affinity purified huHsp47 per 300 μl): completely protect | protection of EC from CIK lysis by pre-incubation with purified native protein (HUVEC): protects EC | protection of EC from CIK lysis by pre-incubation with purified native protein (HUVEC; listed as p46.5): protect previously CIK sensitive EC in a dose responsive fashion
